≈ marks a conversion by molar mass, not a printed value. Where “and” joins values, the source holds several entries; their conditions need not be identical. Equal values may be shown once.
Tests used:
[1] = tested on: VEGFR-2; test: VEGFR-2 expression level in MCF-7 cells (ELISA); type: cell-based, human; conditions: untreated control 1573.00 ± 36.9
Method: (§1) In this study, we further explored the impact of cyanopyridones 5a and 5e on VEGFR-2 and HER-2 expression levels in MCF-7 cells (Figure 5). The results disclosed that both 5a and 5e had interesting profiles for reduction of VEGFR-2/HER-2 expression levels compared to the control cells and the reference drug taxol.
(§2) Assessment was performed using a VEGFR-2 (human) SimpleStep ELISA kit (ab213476) and HER-2 (human) SimpleStep ELISA kit (ab100510) (abcam® Cambridge, CB2 0AX, Cambridge, UK) according to manufacturer instructions. In brief, tissue culture supernatant was added to the anti-tag antibody-coated wells, followed by the secondary antibody mix. To remove unbound material, the wells were washed after incubation. […] The final step in the transformation from blue to yellow was the addition of a stop solution, which halted the reaction. The intensity of the signal generated at 450 nm was proportional to the amount of bound analyte.

[2] = target: T1, HER-2 (Homo sapiens, UniProt P04626); test: In vitro HER-2 inhibition assay; type: biochemical; conditions: mean of three replicates ± S.D.
T1 construct: Effects of compounds 5e and 5a on VEGFR-2 and HER2 (µM) in MCF-7 cells compared to control; endogenous in cells; host or cells: MCF-7
Method: as §2

[3] = tested on: HER-2; test: HER-2 expression level in MCF-7 cells (ELISA); type: cell-based, human; conditions: untreated control 559.00 ± 33.9
Method: as §1, §2

[4] = tested on: HepG2 cell line; test: MTT cytotoxicity assay, HepG2; type: cell-based; conditions: Homo sapiens, 48 h, mean ± S.D. of three experiments, 50% growth inhibition
Method: (§3) The MTT colorimetric assay is a very sensitive method used to measure the potential cytotoxicity (loss of viable cells) of targeted compounds. […] The drug taxol was used as the reference standard. Cell morphological changes were recorded to determine the cytotoxic effect, and the results are found in Table 1, Figure 3.
(§4) In vitro testing was performed on HepG2 and MCF-7 cell lines to determine the antitumor activity of the newly synthesized chemical compounds. Both cell lines originally came from Egypt’s National Cancer Institute (NCI), housed at Cairo University. At 37 °C with 5% […], the cells were grown in RPMI 1640 containing 10% fetal bovine serum, 50 micrograms per milliliter of streptomycin, and 100 international units per milliliter of penicillin. After trypsinization with 0.05% trypsin-EDTA, cell growth and morphology were evaluated, and passages were made when cells reached 80–90% confluence.
(§5) The MTT assay protocol is described in the Supplementary Materials.
(§6) The MTT assay was used to determine the effects of the newly synthesized compounds on cell viability. In a nutshell, 1 × 10^4 cells/well were seeded in a 96-well plate and allowed to grow for 24 hours. After 24 hours, the original medium was discarded, and a new compounds-containing medium was added. After 48 hours, the media was changed out and 100 μL of MTT (10 μL from (MTT) stock solution (5 mg/ml in PBS) in 100 μL media) was added to each well, and the plates were incubated at 37° C for 4 hours. After adding 100 μL of acidified isopropanol to each well, the formed formazan crystals were dissolved, and the absorbance was read at 570 nm using an ELISA microplate reader (Epoc-2C micro-plate reader, Bio Tek, VT, USA). There were three separate runs of every experiment. Half-maximal inhibitory concentrations (IC50) were determined by fitting sigmoidal dose-response curves.
(§7) GraphPad Prism 8.0 (San Diego, CA, USA) analyzed all results. All results (three independent experiments) were shown as means ± standard deviation. The significance of the differences in the outcomes of all groups was examined using ANOVA and Tukey’s

[5] = target: T2, VEGFR-2 (Homo sapiens, UniProt P35968); test: In vitro VEGFR-2 inhibition assay; type: biochemical; conditions: mean of three replicates ± S.D.
T2 construct: Effects of compounds 5e and 5a on VEGFR-2 and HER2 (µM) in MCF-7 cells compared to control; endogenous in cells; host or cells: MCF-7
Method: as §2

[6] = tested on: MCF-7 cell line; test: MTT cytotoxicity assay, MCF-7; type: cell-based; conditions: Homo sapiens, MCF7, 48 h, mean ± S.D. of three experiments, 50% growth inhibition
Method: as §3, §4, §5, §6, §7

[7] = tested on: MCF-7 breast cancer; design: method as in PMID 26729087; conditions: cited from earlier work
[8] = tested on: NCI-H460 non-small cell lung cancer; design: method as in PMID 26729087; conditions: cited from earlier work
[9] = tested on: SF-268 CNS cancer; design: method as in PMID 26729087; conditions: cited from earlier work
[10] = tested on: HER-2; design: method as in doi:10.1039/C5MD00602C; conditions: reported by Pfizer; cited from earlier work

T1 sequence (P04626 23-1255): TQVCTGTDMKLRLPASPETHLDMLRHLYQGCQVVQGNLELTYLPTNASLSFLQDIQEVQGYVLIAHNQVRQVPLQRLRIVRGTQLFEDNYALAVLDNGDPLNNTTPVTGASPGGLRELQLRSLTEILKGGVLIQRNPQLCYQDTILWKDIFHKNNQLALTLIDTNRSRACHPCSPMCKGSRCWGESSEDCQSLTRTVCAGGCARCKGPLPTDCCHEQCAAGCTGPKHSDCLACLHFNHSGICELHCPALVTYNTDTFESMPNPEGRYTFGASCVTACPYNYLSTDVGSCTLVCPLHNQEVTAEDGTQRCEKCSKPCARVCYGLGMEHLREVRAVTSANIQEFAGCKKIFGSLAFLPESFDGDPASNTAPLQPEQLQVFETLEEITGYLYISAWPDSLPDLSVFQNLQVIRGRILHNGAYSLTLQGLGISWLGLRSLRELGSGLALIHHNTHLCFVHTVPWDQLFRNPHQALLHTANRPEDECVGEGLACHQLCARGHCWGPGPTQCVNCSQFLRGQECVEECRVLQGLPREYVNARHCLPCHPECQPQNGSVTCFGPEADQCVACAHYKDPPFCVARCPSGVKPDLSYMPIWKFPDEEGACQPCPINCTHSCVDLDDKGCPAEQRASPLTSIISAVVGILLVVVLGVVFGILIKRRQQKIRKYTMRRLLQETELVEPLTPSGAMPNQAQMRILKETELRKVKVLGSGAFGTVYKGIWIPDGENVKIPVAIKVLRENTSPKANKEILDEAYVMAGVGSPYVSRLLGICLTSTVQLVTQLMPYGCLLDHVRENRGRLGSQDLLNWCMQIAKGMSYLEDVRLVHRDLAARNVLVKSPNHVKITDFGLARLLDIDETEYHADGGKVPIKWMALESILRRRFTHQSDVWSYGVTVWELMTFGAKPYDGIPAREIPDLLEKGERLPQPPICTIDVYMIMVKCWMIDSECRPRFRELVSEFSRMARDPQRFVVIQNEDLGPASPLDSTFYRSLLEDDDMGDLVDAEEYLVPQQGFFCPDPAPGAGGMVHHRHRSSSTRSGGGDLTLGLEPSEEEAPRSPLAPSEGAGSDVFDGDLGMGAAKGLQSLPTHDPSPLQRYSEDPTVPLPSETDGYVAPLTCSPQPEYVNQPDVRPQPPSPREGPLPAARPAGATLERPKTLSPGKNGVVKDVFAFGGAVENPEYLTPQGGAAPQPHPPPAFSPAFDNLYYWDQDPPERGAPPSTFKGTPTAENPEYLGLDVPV
T2 sequence (P35968 20-1356): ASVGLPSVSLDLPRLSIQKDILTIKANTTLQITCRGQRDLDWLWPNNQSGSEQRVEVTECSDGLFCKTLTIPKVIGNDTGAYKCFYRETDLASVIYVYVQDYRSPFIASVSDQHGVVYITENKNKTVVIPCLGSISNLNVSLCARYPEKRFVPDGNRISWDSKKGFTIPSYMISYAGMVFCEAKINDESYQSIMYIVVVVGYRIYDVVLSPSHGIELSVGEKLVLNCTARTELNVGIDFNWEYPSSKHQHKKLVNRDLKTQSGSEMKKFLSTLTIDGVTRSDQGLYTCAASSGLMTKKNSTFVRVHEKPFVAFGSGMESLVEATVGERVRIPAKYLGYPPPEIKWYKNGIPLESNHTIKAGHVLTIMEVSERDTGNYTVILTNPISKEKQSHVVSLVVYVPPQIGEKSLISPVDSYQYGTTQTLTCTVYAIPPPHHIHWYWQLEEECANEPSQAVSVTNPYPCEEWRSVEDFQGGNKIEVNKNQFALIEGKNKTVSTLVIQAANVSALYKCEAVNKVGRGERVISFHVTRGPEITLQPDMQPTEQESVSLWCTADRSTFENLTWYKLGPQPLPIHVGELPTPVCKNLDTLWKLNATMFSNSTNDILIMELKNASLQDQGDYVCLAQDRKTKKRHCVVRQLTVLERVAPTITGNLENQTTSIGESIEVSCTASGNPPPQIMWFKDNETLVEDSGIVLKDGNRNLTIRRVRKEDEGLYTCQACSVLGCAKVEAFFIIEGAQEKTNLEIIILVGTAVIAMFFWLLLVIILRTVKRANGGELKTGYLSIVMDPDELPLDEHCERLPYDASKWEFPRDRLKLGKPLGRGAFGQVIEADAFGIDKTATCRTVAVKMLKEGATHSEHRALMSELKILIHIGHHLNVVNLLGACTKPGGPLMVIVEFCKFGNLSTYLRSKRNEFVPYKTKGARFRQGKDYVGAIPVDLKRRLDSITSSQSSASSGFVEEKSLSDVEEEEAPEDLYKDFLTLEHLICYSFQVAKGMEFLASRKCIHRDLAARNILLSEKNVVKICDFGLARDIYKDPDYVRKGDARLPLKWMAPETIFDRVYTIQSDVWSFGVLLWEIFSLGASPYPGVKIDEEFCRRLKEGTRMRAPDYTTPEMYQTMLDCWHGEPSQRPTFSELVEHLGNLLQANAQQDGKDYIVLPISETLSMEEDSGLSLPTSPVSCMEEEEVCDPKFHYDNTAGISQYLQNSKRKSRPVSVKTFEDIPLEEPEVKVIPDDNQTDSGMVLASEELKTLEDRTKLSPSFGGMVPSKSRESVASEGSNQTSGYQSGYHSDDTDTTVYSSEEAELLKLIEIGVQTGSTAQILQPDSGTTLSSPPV

melting point [°C] | Structure (SMILES) | IC50 [4] [µM] | IC50 [6] [µM] | also measured
280 to 282 | N#Cc1c(-c2ccccc2)c(C#N)c(=O)n(-c2cccc(C(F)(F)F)c2)c1N [Compound 5a] | 2.71 ± 0.15 | 1.77 ± 0.1 | VEGFR-2 (pg/mL) expression level [1]: 884.30 pg/mL and 884.30 ± 29.3 pg/mL; IC50 [2]: 0.168 ± 0.009 µM; HER-2 (pg/mL) expression level [3]: 299.50 pg/mL and 299.50 ± 4.7 pg/mL; IC50 [5]: 0.217 ± 0.02 µM
330 to 332 | N#Cc1c(-c2ccc(O)cc2)c(C#N)c(=O)n(-c2cccc(C(F)(F)F)c2)c1N [Compound 5b] | 11.4 ± 0.61 | 24.7 ± 1.33 | 
229 to 230 | N#Cc1c(-c2ccc([N+](=O)[O-])cc2)c(C#N)c(=O)n(-c2cccc(C(F)(F)F)c2)c1N [Compound 5c] | 4.01 ± 0.22 | 20.2 ± 1.09 | 
324 to 326 | N#Cc1c(-c2ccc(Cl)cc2)c(C#N)c(=O)n(-c2cccc(C(F)(F)F)c2)c1N [Compound 5d] | 22.5 ± 1.22 | 13.7 ± 0.74 | 
239 to 241 | N#Cc1c(-c2ccc(Cl)cc2Cl)c(C#N)c(=O)n(-c2cccc(C(F)(F)F)c2)c1N [Compound 5e] | 10.7 ± 0.58 | 1.39 ± 0.08 | VEGFR-2 (pg/mL) expression level [1]: 510.00 pg/mL and 510.00 ± 20.2 pg/mL; IC50 [2]: 0.077 ± 0.003 µM; HER-2 (pg/mL) expression level [3]: 148.60 pg/mL and 148.60 ± 5.5 pg/mL; IC50 [5]: 0.124 ± 0.011 µM
195 to 197 | COc1cc(-c2c(C#N)c(N)n(-c3cccc(C(F)(F)F)c3)c(=O)c2C#N)cc(OC)c1OC [Compound 5f] | 40.6 ± 2.19 | 54.2 ± 2.93 | 
300 to 302 | N#Cc1c(-c2ccc(O)cc2)c2c(=O)[nH]cnc2n(-c2cccc(C(F)(F)F)c2)c1=O [Compound 6a] | 7.27 ± 0.39 |  | 
350 to 352 | N#Cc1c(-c2ccc(Cl)cc2)c2c(=O)[nH]cnc2n(-c2cccc(C(F)(F)F)c2)c1=O [Compound 6b] | 2.68 ± 0.14 | 14 ± 0.76 | 
308 to 310 | Cc1nc2c(c(-c3ccccc3)c(C#N)c(=O)n2-c2cccc(C(F)(F)F)c2)c(=O)[nH]1 [Compound 7a] | 16.3 ± 0.88 | 10.7 ± 0.58 | 
330 to 332 | Cc1nc2c(c(-c3ccc(Cl)cc3)c(C#N)c(=O)n2-c2cccc(C(F)(F)F)c2)c(=O)[nH]1 [Compound 7b] | 19.6 ± 1.06 | 6.22 ± 0.34 | 
333 to 335 | Cc1nc2c(c(-c3ccc(Cl)cc3Cl)c(C#N)c(=O)n2-c2cccc(C(F)(F)F)c2)c(=O)[nH]1 [Compound 7c] | 5.04 ± 0.27 | 9.28 ± 0.5 | 
320 to 322 | CC(=O)Oc1ccc(-c2c(C#N)c(=O)n(-c3cccc(C(F)(F)F)c3)c3nc(C)[nH]c(=O)c23)cc1 [Compound 7d] | 52.5 ± 2.84 | 43.4 ± 2.35 | 
150 to 152 | COc1cc(-c2c(C#N)c(=O)n(-c3cccc(C(F)(F)F)c3)c3nc(C)[nH]c(=O)c23)cc(OC)c1OC [Compound 7e] | 71.9 ± 3.88 | 27.8 ± 1.5 | 
 | CCC(=O)COc1nc(-c2cc(Cl)ccc2Cl)cc(-c2ccc(F)cc2)c1C#N [III] |  |  | IC50 cell growth inhibition, MCF-7 [7]: 0.02 µg/mL (≈ 0.0466 µM); IC50 cell growth inhibition, NCI-H460 [8]: 0.01 µg/mL (≈ 0.0233 µM); IC50 cell growth inhibition, SF-268 [9]: 0.02 µg/mL (≈ 0.0466 µM)
 | CC(=O)O[C@H]1C(=O)[C@@]2(C)[C@H]([C@H](OC(=O)c3ccccc3)[C@]3(O)C[C@H](OC(=O)[C@H](O)[C@@H](NC(=O)c4ccccc4)c4ccccc4)C(C)=C1C3(C)C)[C@]1(OC(C)=O)CO[C@@H]1C[C@@H]2O [Taxol, paclitaxel, reference compound] | 14.6 ± 0.79 | 8.48 ± 0.46 | VEGFR-2 (pg/mL) expression level [1]: 660.10 ± 31.4 pg/mL; HER-2 (pg/mL) expression level [3]: 199.10 ± 8.6 pg/mL
 | COC(=O)NCC#Cc1ccc2ncnc(Nc3ccc(Oc4cccc(C)n4)c(C)c3)c2c1 [V] |  |  | anti-HER-2 activity [10]: lower than 42 nM

From paper PMC9655118, “Identification of Novel Cyanopyridones and Pyrido[2,3-d]pyrimidines as Anticancer Agents with Dual VEGFR-2/HER-2 Inhibitory Action: Synthesis, Biological Evaluation and Molecular Docking Studies” (Pharmaceuticals, 2022)
